Literature values in US12685722B2, “Compositions of matter and pharmaceutical compositions” (Atai Therapeutics, Inc., priority 2020, dated 2026).

For `CN(C)CCc1c[nH]c2cccc(O)c12` [psilocin], the in vivo half-life is given as “about 50 minutes” and the psychedelic experiences lasting (in vivo) is given as 4 to 6 h.
